Measured values published in patent publication US20110082130A1 (LIGAND PHARMACEUTICALS, INC., priority 2006, published 2011).

target: T1, chimeric human H3 receptor (Homo sapiens, UniProt Q9Y5N1); assay: Chimeric human H3 receptor screening GTP binding assay (inhibition of histamine-stimulated GTP-gamma35S binding, Example 8); assay type: biochemical; conditions: 4 μM of the compound, 1 μM histamine, "†" in Ki of Table II, read-out: percent inhibition of the signal obtained with 1 μM histamine
T1 construct: made in house; host or cells: Sf9 insect cells (baculovirus); P2 membrane preparation
T1 sequence (Q9Y5N1 with tags, fused parts or gaps): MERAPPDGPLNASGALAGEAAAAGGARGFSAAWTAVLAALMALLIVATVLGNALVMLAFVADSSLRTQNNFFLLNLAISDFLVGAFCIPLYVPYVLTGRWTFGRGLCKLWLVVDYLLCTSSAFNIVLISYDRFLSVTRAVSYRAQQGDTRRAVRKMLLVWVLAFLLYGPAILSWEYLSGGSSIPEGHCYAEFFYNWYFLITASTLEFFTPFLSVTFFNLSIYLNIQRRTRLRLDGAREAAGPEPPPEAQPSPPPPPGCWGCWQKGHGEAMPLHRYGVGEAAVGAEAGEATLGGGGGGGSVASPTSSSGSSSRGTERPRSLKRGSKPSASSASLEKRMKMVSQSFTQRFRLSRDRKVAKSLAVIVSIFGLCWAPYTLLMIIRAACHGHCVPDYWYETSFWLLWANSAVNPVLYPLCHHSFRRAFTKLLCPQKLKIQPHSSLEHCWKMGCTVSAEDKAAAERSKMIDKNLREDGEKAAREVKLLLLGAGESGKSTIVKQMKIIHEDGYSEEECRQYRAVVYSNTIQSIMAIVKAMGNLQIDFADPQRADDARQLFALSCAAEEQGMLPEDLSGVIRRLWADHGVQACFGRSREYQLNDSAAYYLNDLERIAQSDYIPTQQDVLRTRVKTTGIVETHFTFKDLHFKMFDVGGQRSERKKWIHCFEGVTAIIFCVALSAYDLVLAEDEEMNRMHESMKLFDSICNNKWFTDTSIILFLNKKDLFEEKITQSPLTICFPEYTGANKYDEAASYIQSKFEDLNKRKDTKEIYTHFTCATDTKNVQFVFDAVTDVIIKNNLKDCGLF
Protocol: This Example illustrates a representative screening assay for evaluating inhibition of histamine-stimulated GTP-gamma^35S binding. Such GTP binding activity can be used to identify H3 antagonists and inverse agonists. A compound analyzed in this assay is referred to herein as a “test compound,” and the initial identification of antagonists and inverse agonists is performed using a test compound concentration of 4 μM.
Four independent baculoviral stocks (one directing the expression of the chimeric human H3 receptor and three directing the expression of each of the three subunits of a heterotrimeric G-protein) are used to infect a culture of Sf9 cells as described above. P2 membranes are prepared as described above, and are resuspended by Dounce homogenization (tight pestle) in GTP binding assay buffer (50 mM Tris pH 7.4, 120 mM NaCl, 5 mM MgCl2, 2 mM EGTA, 1 mg/ml BSA, 0.2 mg/ml bacitracin, 0.02 mg/ml aprotinin, 0.01 mg/ml saponin, 10 μM GDP) and added to assay tubes at a concentration of 35 μg protein/reaction tube. Non-radiolabeled test compounds are added to separate reactions at a concentration of 4 μM along with 1 μM histamine (agonist). Reactions are initiated by the addition of […] GTP-gamma^35S with a final assay volume of 0.20 ml.
After a 60-min incubation at room temperature, reactions are terminated by vacuum filtration over GF/C filters (pre-soaked in 50 mM Tris pH 7.4, 120 mM NaCl plus 0.1% BSA) followed by washing with ice-cold buffer (50 mM Tris pH 7.4, 120 mM NaCl). The amount of receptor-bound (and thereby membrane-bound) GTP-gamma^35S is determined by measuring the bound radioactivity, preferably by liquid scintillation spectrometry of the washed filters. Non-specific binding is determined using 10 uM GTP-gammaS and typically represents less than 5 percent of total binding. After subtraction of non-specific binding, data is expressed as percent inhibition of 1 μM histamine signal.
Neutral antagonists are those test compounds that reduce the histamine-stimulated GTP binding activity towards, but not below, baseline levels. In contrast, in the absence of added histamine, inverse agonists reduce the GTP binding activity of the receptor-containing membranes below baseline. Any test compound that elevates GTP binding activity above baseline in the absence of added histamine in this assay is defined as having agonist activity.

Structure (SMILES) | inhibition at 4 µM [%]
O=C(CN1CCc2cc(-c3cccc4c3oc3ccccc34)ccc2C1)N1CCN(C2CCCC2)CC1 [Compound 379, 2-[2-(4-cyclopentylpiperazin-1-yl)-2-oxoethyl]-6-dibenzo[b,d]furan-4-yl-1,2,3,4-tetrahydroisoquinoline] | ≥ 90
O=C(CN1CCc2cc(-c3cccc4c3oc3ccccc34)ccc2C1)N1CCN(C2CCCCC2)CC1 [Compound 384, 2-[2-(4-cyclohexylpiperazin-1-yl)-2-oxoethyl]-6-dibenzo[b,d]furan-4-yl-1,2,3,4-tetrahydroisoquinoline] | ≥ 90
CC(C)N1CCN(C(=O)CN2CCc3cc(-c4ccc5c(c4)OCCO5)ccc3C2)CC1 [Compound 385, 6-(2,3-dihydro-1,4-benzodioxin-6-yl)-2-[2-(4-isopropylpiperazin-1-yl)-2-oxoethyl]-1,2,3,4-tetrahydroisoquinoline] | ≥ 90
O=C(CN1CCc2cc(-c3ccccc3)ccc2C1)N1CCN(C2CCC2)CC1 [Compound 398, 2-[2-(4-cyclobutylpiperazin-1-yl)-2-oxoethyl]-6-phenyl-1,2,3,4-tetrahydroisoquinoline] | ≥ 90
O=C(CN1CCc2cc(-c3ccccc3)ccc2C1)N1CCN(C2CCCCC2)CC1 [Compound 400, 2-[2-(4-cyclohexylpiperazin-1-yl)-2-oxoethyl]-6-phenyl-1,2,3,4-tetrahydroisoquinoline] | ≥ 90
O=C(CN1CCc2cc(-c3ccc(Cl)cc3)ccc2C1)N1CCN(C2CCCC2)CC1 [Compound 405, 6-(4-chlorophenyl)-2-[2-(4-cyclopentylpiperazin-1-yl)-2-oxoethyl]-1,2,3,4-tetrahydroisoquinoline] | ≥ 90
O=C(CN1CCc2cc(-c3ccc(F)cc3)ccc2C1)N1CCN(C2CCC2)CC1 [Compound 407, 2-[2-(4-cyclobutylpiperazin-1-yl)-2-oxoethyl]-6-(4-fluorophenyl)-1,2,3,4-tetrahydroisoquinoline] | ≥ 90
O=C(CN1CCc2cc(-c3ccc(F)cc3)ccc2C1)N1CCN(C2CCCC2)CC1 [Compound 408, 2-[2-(4-cyclopentylpiperazin-1-yl)-2-oxoethyl]-6-(4-fluorophenyl)-1,2,3,4-tetrahydroisoquinoline] | ≥ 90
O=C(CN1CCc2cc(-c3ccc(F)cc3)ccc2C1)N1CCN(C2CCCCC2)CC1 [Compound 409, 2-[2-(4-cyclohexylpiperazin-1-yl)-2-oxoethyl]-6-(4-fluorophenyl)-1,2,3,4-tetrahydroisoquinoline] | ≥ 90
O=C(CN1CCc2cc(-c3cccc(F)c3)ccc2C1)N1CCN(C2CCC2)CC1 [Compound 410, 2-[2-(4-cyclobutylpiperazin-1-yl)-2-oxoethyl]-6-(3-fluorophenyl)-1,2,3,4-tetrahydroisoquinoline] | ≥ 90
O=C(CN1CCc2cc(-c3cccc(F)c3)ccc2C1)N1CCN(C2CCCC2)CC1 [Compound 411, 2-[2-(4-cyclopentylpiperazin-1-yl)-2-oxoethyl]-6-(3-fluorophenyl)-1,2,3,4-tetrahydroisoquinoline] | ≥ 90
O=C(CN1CCc2cc(-c3cccc(F)c3)ccc2C1)N1CCN(C2CCCCC2)CC1 [Compound 412, 2-[2-(4-cyclohexylpiperazin-1-yl)-2-oxoethyl]-6-(3-fluorophenyl)-1,2,3,4-tetrahydroisoquinoline] | ≥ 90
CC(C)N1CCN(C(=O)CN2CCc3cc(-c4cccc(F)c4)ccc3C2)CC1 [Compound 413, 6-(3-fluorophenyl)-2-[2-(4-isopropylpiperazin-1-yl)-2-oxoethyl]-1,2,3,4-tetrahydroisoquinoline] | ≥ 90
O=C(CN1CCc2cc(-c3ccc4ccccc4c3)ccc2C1)N1CCN(C2CCC2)CC1 [Compound 416, 2-[2-(4-cyclobutylpiperazin-1-yl)-2-oxoethyl]-6-(2-naphthyl)-1,2,3,4-tetrahydroisoquinoline] | ≥ 90
O=C(CN1CCc2cc(-c3ccc4ccccc4c3)ccc2C1)N1CCN(C2CCCC2)CC1 [Compound 417, 2-[2-(4-cyclopentylpiperazin-1-yl)-2-oxoethyl]-6-(2-naphthyl)-1,2,3,4-tetrahydroisoquinoline] | ≥ 90
O=C(CN1CCc2cc(-c3ccc4ccccc4c3)ccc2C1)N1CCN(C2CCCCC2)CC1 [Compound 418, 2-[2-(4-cyclohexylpiperazin-1-yl)-2-oxoethyl]-6-(2-naphthyl)-1,2,3,4-tetrahydroisoquinoline] | ≥ 90
CC(C)N1CCN(C(=O)CN2CCc3cc(-c4ccc5ccccc5c4)ccc3C2)CC1 [Compound 419, 2-[2-(4-isopropylpiperazin-1-yl)-2-oxoethyl]-6-(2-naphthyl)-1,2,3,4-tetrahydroisoquinoline] | ≥ 90

The remaining lines, values ahead:

inhibition at 4 µM [%] | Structure (SMILES)
≥ 90 | O=C(CN1CCc2cc(-c3cccc4c3oc3ccccc34)ccc2C1)N1CCN(C2CCC2)CC1 [Compound 388, 2-[2-(4-cyclobutylpiperazin-1-yl)-2-oxoethyl]-6-dibenzo[b,d]furan-4-yl-1,2,3,4-tetrahydroisoquinoline]
≥ 90 | O=C(CN1CCc2cc(-c3ccccc3)ccc2C1)N1CCN(C2CCCC2)CC1 [Compound 399, 2-[2-(4-cyclopentylpiperazin-1-yl)-2-oxoethyl]-6-phenyl-1,2,3,4-tetrahydroisoquinoline]
≥ 90 | O=C(CN1CCc2cc(-c3cccc(Cl)c3)ccc2C1)N1CCN(C2CCC2)CC1 [Compound 401, 6-(3-chlorophenyl)-2-[2-(4-cyclobutylpiperazin-1-yl)-2-oxoethyl]-1,2,3,4-tetrahydroisoquinoline]
≥ 90 | O=C(CN1CCc2cc(-c3cccc(Cl)c3)ccc2C1)N1CCN(C2CCCC2)CC1 [Compound 402, 6-(3-chlorophenyl)-2-[2-(4-cyclopentylpiperazin-1-yl)-2-oxoethyl]-1,2,3,4-tetrahydroisoquinoline]
≥ 90 | O=C(CN1CCc2cc(-c3cccc(Cl)c3)ccc2C1)N1CCN(C2CCCCC2)CC1 [Compound 403, 6-(3-chlorophenyl)-2-[2-(4-cyclohexylpiperazin-1-yl)-2-oxoethyl]-1,2,3,4-tetrahydroisoquinoline]
≥ 90 | O=C(CN1CCc2cc(-c3ccc(Cl)cc3)ccc2C1)N1CCN(C2CCC2)CC1 [Compound 404, 6-(4-chlorophenyl)-2-[2-(4-cyclobutylpiperazin-1-yl)-2-oxoethyl]-1,2,3,4-tetrahydroisoquinoline]
≥ 90 | O=C(CN1CCc2cc(-c3ccc(Cl)cc3)ccc2C1)N1CCN(C2CCCCC2)CC1 [Compound 406, 6-(4-chlorophenyl)-2-[2-(4-cyclohexylpiperazin-1-yl)-2-oxoethyl]-1,2,3,4-tetrahydroisoquinoline]
≥ 90 | O=C(CN1CCc2cc(-c3ccccc3F)ccc2C1)N1CCN(C2CCC2)CC1 [Compound 414, 2-[2-(4-cyclobutylpiperazin-1-yl)-2-oxoethyl]-6-(2-fluorophenyl)-1,2,3,4-tetrahydroisoquinoline]
≥ 90 | O=C(CN1CCc2cc(-c3ccccc3F)ccc2C1)N1CCN(C2CCCC2)CC1 [Compound 415, 2-[2-(4-cyclopentylpiperazin-1-yl)-2-oxoethyl]-6-(2-fluorophenyl)-1,2,3,4-tetrahydroisoquinoline]
